Data on 26 molecules can be found in US6015877A, “Compounds for inhibition of proteolysis” (President and Fellows of Harvard College, priority 1996, dated 2000).

Assay [1] deals with isoprenylated protein endoprotease. Kind of assay: Inhibition of the solubilized / partially purified enzyme by non-halomethyl ketone inhibitors. It is filed as biochemical, bovine. To be noted: for enzyme activity (%) detergent extract / enzyme activity (%) partially purified: control 100.
Assay [2] shares this test system. The experiment in a line: Inhibition of the isoprenylated protein endoprotease by halomethyl ketones (preincubation, 20-fold dilution, Kitz-Wilson). Type of assay: biochemical, bovine. To be noted: for enzyme activity (%): diluted 20-fold, control 100; for inhibition / inactivation of the endoprotease (in words): solubilized endoprotease. The method, then:
A typical procedure of inhibition is given here to illustrate the details of this procedure. A CHAPSO-solubilized protein preparation (2.5 mg/mL) or a partially […] protein preparation (0.17 mg/mL) was incubated with chloromethyl ketone inhibitors at 37° C. for 30 minutes. Aliquots were removed at timed intervals and diluted with assay buffer E for the solubilized preparation of with assay buffer D for the partially purified protein preparation in 20-fold. The final protein and substrate concentrations were 0.12 mg/mL (or 8.5 μg of partially purified protein preparation per milliliter) and 2.0 μM, respectively, except as otherwise noted; the residual enzyme activity was assayed as described above. TPCK and BFC-CMK were characterized by kinetic measurements. The bimolecular rate constant Kinh /K1 and pseudo-first-order kinetic rate constant Kinh were obtained using the Kitz-Wilson method (Kitz & Wilson, 1962). According to Kitz-Wilson method, the irreversible modification of an enzyme by an active-site directed inhibitor is given by [drawing 9] where K1 =[E]·[I]/[E·I] and -d([E]+[E·I])/dt=Kinh [E·I]. [I] and [E] are inhibitor and enzyme concentrations at a certain time, respectively. Under conditions here [I]>>[Eo ], which is the enzyme concentration at time zero, [I] is constant. Under conditions where the enzyme-inhibitor solution is extensively diluted before the assay, a simplified equation 2 can be obtained as follows: […]
To further establish the specificity of the inactivation process, several commercially available haloketones were studies as putative inactivators of the endoprotease. The structures of these analogs are shown and their activities are shown in Table V. In these studies, the solubilized protein material was preincubated with a chloromethyl ketone inhibitor at 284 μM (unless otherwise noted) for 30 minutes; then 2.5-μL aliquots of the incubated solution were taken and diluted 20-fold for assay of the residual enzyme activity. […] Save for the dipeptide derivatives (ZGGFCMK and ZAPFCMK) derived from TPCK, the other halomethyl ketones tested are virtually inert.
FIG. 16(A) Time-dependent inhibition. 16B Kitz-Wilson plot (the upper panel) for the inhibition of the isoprenylated protein endoprotease by TPCK. The inhibition studies were carried out at 37° C. using the solubilized endoprotease preparation. Aliquote of the inhibitor-enzyme solution were taken at interval times and diluted by a factor of 20, and the enzyme activity was assayed as described in Methods. (B) (the lower panel) the concentration-dependent inhibition of the endoprotease by TPCK. The inhibition studies were carried out at 37° C. The crude CHAPSO-solubilized endoprotease preparations (0.12 mg/mL) were preincubated for 60 min in 50 μL of buffer E in the presence of 284 μM TPCK or TLCK with 6% DMSO and 2% 2-propanol. After the incubation, the reaction solution was diluted by a factor of 20, and the remaining enzyme activity of the inhibitor-enzyme solution was assayed as described in Methods. Data were represented in mean from duplicate runs.

In assay [3] the test system is membrane-bound isoprenylated protein endoprotease. To be noted: cited from earlier work.
The test system of assay [4] is protease of bovine liver microsomal membranes (isoprenylated protein endoprotease). The experiment in a line: Proteolysis of N-[3H]acetyl isoprenylated peptide substrates by calf liver microsomal membranes (N-[3H]-AFC formation, HPLC). Particulars: for activity as substrate (Table 1, words): 10 mM, prolonged incubation time (16 hours), detection limit 1.13 pmol/min/mg. (In general: Liver microsomes are a subcellular fraction often used to study metabolism.)

Assay [5] addresses T1, cysteine protease apopain (Homo sapiens, UniProt P42574).
T1 sequence (P42574 29-175 limits assumed): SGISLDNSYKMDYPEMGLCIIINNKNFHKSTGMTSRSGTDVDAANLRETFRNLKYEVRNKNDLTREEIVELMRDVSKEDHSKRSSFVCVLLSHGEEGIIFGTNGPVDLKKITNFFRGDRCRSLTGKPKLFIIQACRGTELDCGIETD
T1 sequence (P42574 176-277 limits assumed): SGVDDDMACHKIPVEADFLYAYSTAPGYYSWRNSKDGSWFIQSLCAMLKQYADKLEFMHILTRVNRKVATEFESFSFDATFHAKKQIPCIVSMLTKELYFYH
Particulars: cited from earlier work.

Where [6] appears, read: 284 μM inhibitor, solubilized protein preincubated 30 minutes.
Where [7] appears, read: Kitz-Wilson plot using the partially purified enzyme preparation.
Setting [8] is: calf liver microsomal membranes.
Setting [9] is: Table 1, same enzyme preparation, average of two determinations ±S.D.

“And” between values parts separate entries of the source, which are not always exact repeats. Equal values may be shown once. “Also recorded” adds a separate entry of the source. Read-outs that look alike come from different tables or passages of the source. Where no end group is shown, it is not given here. [ ]: non-standard residue; d: D form. The star is where a group is joined. Farnesyl = CC(C)=CCC/C(C)=C/CC/C(C)=C/C*

For `O[C@H](CS)[C@H](O)CS` (racemic) [DTT, Dithiothreitol], the “effect on the solubilized enzyme's activity (in words)” value in assay [1] (1-5 mM) is “Neither DTT (1-5 mM) nor glycerol (20%) affects the enzyme's activity”. The “enzyme activity (%) detergent extract” value in assay [1] (inhibitor 5 mM) worked out at 108 ± 8%.
On to `CC(C)=CCC/C(C)=C/CC/C(C)=C/CSC[C@H](NC(=O)OC(C)(C)C)C(=O)CCl` (stereo in doubt) [BFCCMK, N-Boc-S-all-trans-Farnesyl-L-cysteine Chloromethyl Ketone], for which, in assay [2] (setting [6]), the “enzyme activity (%)” value stood at 27 ± 2%. In assay [2] (setting [7]), the “Kinh (s^-1)” value is reported as “(5.9 ± 0.4) × 10^-3 s^-1”; the “Kinh /K1” value was 1164 M⁻¹ min⁻¹ and 1164 ± 60 M⁻¹ min⁻¹. Also, the Ki in assay [2] (Kitz-Wilson plot using the partially purified enzyme preparation, read-out: K1) was 30 µM and ~30 µM. In addition, the “increase of the second-order rate constant” value in assay [2] (compared with TPCK) stood at 15 fold. Also, the “inhibition / inactivation of the endoprotease (in words)” value (shortened to “inhibition / inactivation”) in assay [2] was “good inhibitors; also recorded: quite a potent inactivator of the endoprotease; also recorded: most potent inactivator of the endoprotease; also recorded: much more potent inactivator of the endoprotease than TPCK”.
Regarding `CC(C)=CCC/C(C)=C/CC/C(C)=C/CSC[C@@H](C=O)NC(=O)OC(C)(C)C` (stereo in doubt) [N-Boc-S-all-trans-farnesyl-L-cysteine Aldehyde], the “inhibition of the enzyme (in words)” value in assay [3] (Ma et al., 1993) is on record as “fairly potent competitive inhibitor”.
`CC(=O)N[C@@H](CSC/C=C(\C)CC/C=C(\C)CCC=C(C)C)C(N)=O` [AFC amide]: the “substrate activity (in words)” value in assay [4] (setting [8]) is given as “not a substrate for the enzyme”.
On to `N=C(N)c1ccc(CS(=O)(=O)F)cc1` [APMSF, 4-(amidinophe-nyl)methanesulfonyl fluoride], for which the “inhibition of the endoprotease (in words)” value in assay [3] is given as “not inhibited”.
With `CC(C)C[C@H](NC(=O)[C@@H](NC(=O)N[C@@H](Cc1ccccc1)C(=O)O)[C@@H]1CCN=C(N)N1)C(=O)N[C@H](C=O)Cc1ccccc1` [Chymostatin], in assay [1] (0.33 mM), the “inhibition of the endoprotease (in words)” value was “not inhibited”. Besides, in assay [1] (inhibitor 0.33 mM), the “enzyme activity (%) detergent extract” value was determined as 104 ± 8% and the “enzyme activity (%) partially purified” value came to 99 ± 1%. Moreover, the “enzyme activity (%) partially purified” value in assay [1] (inhibitor 0.33 mM, listed as chymostatin) is reported as “not inhibited”.
Regarding `CCN1C(=O)C=CC1=O` [N-ethylma-leimide], the “inhibition of apopain (in words)” value in assay [5] is listed as “inhibited”.
As to `O=S(=O)(F)Cc1ccccc1` [PMSF, phenylmethanesulfonyl fluoride], the “inhibition of the endoprotease (in words)” value in assay [1] (1 mM) is reported as “not inhibited”. In addition, the “enzyme activity (%) detergent extract” value in assay [1] (inhibitor 1 mM) turned out to be 93 ± 3%.
On to `OCC(O)CO` [glycerol], for which, in assay [1] (20%), the “effect on the solubilized enzyme's activity (in words)” value is “Neither DTT (1-5 mM) nor glycerol (20%) affects the enzyme's activity”.
With `CC(=O)N[C@@H](CC(C)C)C(=O)N[C@@H](CC(C)C)C(=O)N[C@H](C=O)CCCNC(=N)N` [leupeptin], the “inhibition of the endoprotease (in words)” value in assay [3] (1.0 μM) is “not inhibited”.
Consider “N-Ac-S-all-trans-farnesyl-D-Cys-L-Val-L-Ile [AFC--Val--Ile (6)]”, for which the “activity as substrate (Table 1, words)” value in assay [4] is “inactive”.
As to “N-Benzyloxycarbonylglycylglycyl-S-all-trans-farnesyl-L-cysteine Chloromethyl Ketone [ZGGFCCMK]”, the “enzyme activity (%)” value in assay [2] (setting [6]) came out at 44 ± 1%. Further, the “inhibition / inactivation” value in assay [2] was “good inhibitors”.
A word on the Km: it is the substrate concentration at which the rate is half of its maximum. What is called Vmax is the rate approached at saturating substrate. Turning to “N-[^3 H-Acetyl-S-all-trans-geranylgeranyl-L-Cys-L-Val-L-ile [AGGC--Val--Ile (2)]”, in assay [4] (setting [9]), the Km stood at 4.01 ± 0.4 µM and the maximal velocity (Vmax) came to 26.20 ± 0.97 pmol/min/mg. In assay [4] (setting [8]), the Michaelis constant (Km) was determined as 14.6 µM, the Vmax turned out to be 19.35 pmol/min/mg and the “substrate activity (in words)” value is given as “good substrates”.
For “N-[^3 H]-Acetyl-L-Cys-L-Val-L-Ile [Cys--Val--Ile (4)]”, in assay [4], the “activity as substrate (Table 1, words)” value is “inactive”. Moreover, the “substrate activity (in words)” value in assay [4] (setting [8]) is given as “Neither analog was measurably processed”.
In the case of “N-[^3 H]-Acetyl-S-all-trans-geranylgeranyl-D-cys-L-Val-L-Ile [AGGC--Val--Ile (2) D--L--L]”, the “activity as substrate (Table 1, words)” value in assay [4] is “inactive”. Further, in assay [4] (setting [8]), the “substrate activity (in words)” value is listed as “no measurable protease activity”.
Taken in the same sequence, the figures for “N-[^3 H]-Acetyl-S-thio-t-butyl-L-Cys-L-Val-L-Ile [t-butylthio-Cys--Val--Ile (5)]” were “inactive” and “Neither analog was measurably processed”.
“N-[^3 H]-acetyl-S-all-trans-farnesyl-L-Cys-L-Val-D-Ile [AFC--Val--Ile (8)]”: the “activity as substrate (Table 1, words)” value in assay [4] was “inactive”. Besides, the “substrate activity (in words)” value in assay [4] (setting [8]) is on record as “did not have substrate activity”.
As to “N-[^3 H]-acetyl-S-all-trans-farnesyl-L-Cys-L-Val-L-Ile-D-Met ({(3H)‑acetyl}-C(Farnesyl)VI[dM]) [AFC--Val--Ile--Met (10)]”, the “activity as substrate (Table 1, words)” value in assay [4] is reported as “weakly active (detectable activity is observed under prolonged incubation periods, but the activity is <5% that observed with AFC-V-I-S)”. Further, in assay [4] (setting [8]), the “substrate activity (in words)” value is listed as “processed to some extent”.
For “N-acetyl-S-all-trans-farnesyl-D-Cys-D-Val-L-Ile [D-D-L]”, the “substrate activity (in words)” value in assay [4] (setting [8]) is “inactive”.
In the case of “N-acetyl-S-all-trans-farnesyl-L-Cys-D-Val-L-Ile [AFC--Val--Ile (7)]”, the “activity as substrate (Table 1, words)” value in assay [4] is “inactive”. Besides, the “substrate activity (in words)” value in assay [4] (setting [8]) is on record as “did not have substrate activity”.
For “N-acetyl-S-trans-geranyl-D-Cys-L-Val-Ile [AGC--Val--Ile (3) D--L--L]”, in that order: “inactive” and “no measurable protease activity”.
As for “N-acetyl-S-trans-geranyl-L-Cys-L-Val-L-Ile [AGC--Val--Ile (3)]”, in assay [4] (setting [9]), the Michaelis constant (Km) is 14.6 ± 2.14 µM and the “Vmax” value is listed as 19.35 ± 1.12 pmol/min/mg. In addition, the “substrate activity (in words)” value in assay [4] (setting [8]) is recorded as “good substrates”.
With “Nα-tosyl-L-lysine chloromethyl ketone [TLCK]”, the “enzyme activity (%)” value in assay [2] (1000 μM inhibitor, solubilized protein preincubated) is 94 ± 15%. Besides, the “inhibition / inactivation” value in assay [2] is recorded as “did not inhibit the enzyme activity; also recorded: does not inhibit the enzyme activity”. Besides, the “inhibition of apopain (in words)” value in assay [5] is given as “not”.
In the case of aprotinin, the “inhibition of the endoprotease (in words)” value in assay [3] (0.6 μM) is reported as “not inhibited”.
Take bis(p-nitro-phenyl)phosphate [BNPP]: in assay [1] (1 mM), the “inhibition of the endoprotease (in words)” value is “not inhibited”. Further, the “enzyme activity (%) detergent extract” value in assay [1] (inhibitor 1 mM) was found to be 100 ± 8%.
Regarding “β-(2-naphthyl)-L-alanine chloromethyl ketone [2-Nal-Ala-CMK]”, the “enzyme activity (%)” value in assay [2] (setting [6]) was 53 ± 1%. For the same molecule, the “inhibition / inactivation” value in assay [2] is recorded as “inhibit the endoprotease well”.
